Measured values from patent US20110160223A1, “NMDA Receptor Antagonists for the Treatment of Neuropsychiatric Disorders” (priority 2008, published 2011).
Where two headings read alike, the source gives them in different places.

Assays:
[1] = Plasma half-life (i.v./i.p. pharmacokinetics, Table 23); type: in vivo, Rats; conditions: rat; for AUC(0-t): read-out: AUC (0-last h) i.v. XMPK; for Cmax at 30 min: 30 m
Protocol: Animals were fasted overnight prior to dose administration and food returned to the animals two hours after dosing. Following IV dosing, blood samples (ca 200 μL) were collected into separate tubes containing anticoagulant (K-EDTA) via the orbital plexus at various times post administration. Plasma samples were prepared immediately after collection by centrifugation for ten minutes using a tabletop centrifuge, and stored at −80° C. Brain tissue was weighed, homogenized on ice in 50 mM phosphate buffer (2 ml per brain) and the homogenate stored at −80° C. Plasma and brain homogenate samples were extracted by the addition of 5 volumes of cold acetonitrile, mixed well by vortexing and centrifuged at 4000 rpm for 15 minutes. The supernatant fractions were analyzed by LC-MS/MS operating in multiple reaction monitoring mode (MRM). The amount of parent compound in each sample was calculated by comparing the response of the analyte in the sample to that of a standard curve.

[2] = Oral absorption (p.o. pharmacokinetics, Table 25); type: in vivo, Rats; conditions: rat, plasma, 10 mg/kg, 10 MPK, 0-8 hr p.o.
[3] = target: NMDA receptor (NR1 + NR2 subunits) (Rattus norvegicus, UniProt P35439+Q00960); test: Two electrode voltage clamp recording from Xenopus laevis oocytes (pH dependence of NMDA antagonism); type: cell-based
Protocol: cRNA was synthesized from linearized template cDNA for rat glutamate receptor subunits according to manufacturer specifications (Ambion). Quality of synthesized cRNA was assessed by gel electrophoresis, and quantity was estimated by spectroscopy and gel electrophoresis. Stage V and VI oocytes were surgically removed from the ovaries of large, well-fed and healthy Xenopus laevis anesthetized with 3-amino-benzoic acid ethyl ester (3 gm/l) as previously described. Clusters of isolated oocytes were incubated with 292 U/ml Worthington (Freehold, N.J.) type IV collagenase or 1.3 mg/ml collagenase (Life Technologies, Gaithersburg, Md.; 17018-029) for 2 hr in Ca^2+-free solution comprised of (in mM) 115 NaCl, 2.5 KCl, and 10 HEPES, pH 7.5, with slow agitation to remove the follicular cell layer. Oocytes were then washed extensively in the same solution supplemented with 1.8 mM CaCl2 and maintained in Barth's solution comprised of (in mM): 88 NaCl, 1 KCl, 2.4 NaHCO3, 10 HEPES, 0.82 MgSO4, 0.33 Ca(NO3)2, and 0.91 CaCl2 and supplemented with 100 μg/ml gentamycin, 10 μg/ml streptomycin, and 10 μg/ml penicillin. Oocytes were manually defolliculated and injected within 24 hrs of isolation with 3-5 ng of NR1 subunit cRNA and 7-10 ng of NR2 cRNA subunit in a 50 nl volume, or 5-10 ng of AMPA or kainate receptor cRNAs in a 50 nl volume, and incubated in Barth's solution at 18° C. for 1-7 d. Glass injection pipettes had tip sizes ranging from 10-20 microns, and were backfilled with mineral oil.
Two electrode voltage-clamp recordings were made 2-7 days post-injection as previously described. Oocytes were placed in a dual-track plexiglass recording chamber with a single perfusion line that splits in a Y-configuration to perfuse two oocytes. Dual recordings were made at room temperature (23° C.) using two Warner OC725B two-electrode voltage clamp amplifiers, arranged as recommended by the manufacturer. Glass microelectrodes (1-10 Megaohms) were filled with 300 mM KCl (voltage electrode) or 3 M KCl (current electrode). The bath clamps communicated across silver chloride wires placed into each side of the recording chamber, both of which were assumed to be at a reference potential of 0 mV. Oocytes were perfused with a solution comprised of (in mM) 90 NaCl, 1 KCl, 10 HEPES, and 0.5 BaCl2; pH was adjusted by addition of 1-3 M NaOH of HCl. Oocytes were recorded under voltage clamp at −40 mV. Final concentrations for control application of glutamate (50 μM) plus glycine (30 μM) were achieved by adding appropriate volumes from 100 and 30 mM stock solutions, respectively. In addition, 10 μM final EDTA was obtained by adding a 1:1000 dilution of 10 mM EDTA, in order to chelate contaminant divalent ions such as Zn^2+. Concentration-response curves for experimental compounds were obtained by applying in successive fashion maximal glutamate/glycine, followed by glutamate/glycine plus variable concentrations of experimental compounds. Dose response curves consisting of 4 to 8 concentrations were obtained in this manner. The baseline leak current at −40 mV was measured before and after recording, and the full recording linearly corrected for any change in leak current. Oocytes with glutamate-evoked responses smaller than 50 nA were not included in the analysis. The level of inhibition by applied experimental compounds was expressed as a percent of the initial glutamate response, and averaged together across oocytes from a single frog. Each experiment consisted of recordings from 3 to 10 oocytes obtained from a single frog. Results from 3-6 experiments were pooled, and the average percent responses at antagonist concentrations were fitted by the equation,
Percent Response=(100−minimum)/(1+([conc]/IC50)^nH)+minimum […]

[4] = iv, 1 mg/kg, 1 MPK, 0-6 hr i.v.
[5] = iv, 1 mg/kg, 1 MPK, 0-4 hr i.v.
[6] = pH 6.9, Table 18, read-out: IC50 at pH 6.9
[7] = pH 7.6, Table 18, read-out: IC50 at pH 7.6
[8] = pH 6.9, Table 17, read-out: IC50 at pH 6.9
[9] = pH 7.6, Table 17, read-out: IC50 at pH 7.6
[10] = pH 6.9, Table 19, read-out: IC50 at pH 6.9
[11] = pH 7.6, Table 19, read-out: IC50 at pH 7.6
[12] = pH 6.9, Table 21, read-out: IC50 at pH 6.9
[13] = pH 7.6, Table 21, read-out: IC50 at pH 7.6
[14] = pH 6.9, Table 20, read-out: IC50 at pH 6.9
[15] = pH 7.6, Table 20, read-out: IC50 at pH 7.6

NMDA receptor (NR1 + NR2 subunits), sequence (Q00960 27-1482, other chains not shown): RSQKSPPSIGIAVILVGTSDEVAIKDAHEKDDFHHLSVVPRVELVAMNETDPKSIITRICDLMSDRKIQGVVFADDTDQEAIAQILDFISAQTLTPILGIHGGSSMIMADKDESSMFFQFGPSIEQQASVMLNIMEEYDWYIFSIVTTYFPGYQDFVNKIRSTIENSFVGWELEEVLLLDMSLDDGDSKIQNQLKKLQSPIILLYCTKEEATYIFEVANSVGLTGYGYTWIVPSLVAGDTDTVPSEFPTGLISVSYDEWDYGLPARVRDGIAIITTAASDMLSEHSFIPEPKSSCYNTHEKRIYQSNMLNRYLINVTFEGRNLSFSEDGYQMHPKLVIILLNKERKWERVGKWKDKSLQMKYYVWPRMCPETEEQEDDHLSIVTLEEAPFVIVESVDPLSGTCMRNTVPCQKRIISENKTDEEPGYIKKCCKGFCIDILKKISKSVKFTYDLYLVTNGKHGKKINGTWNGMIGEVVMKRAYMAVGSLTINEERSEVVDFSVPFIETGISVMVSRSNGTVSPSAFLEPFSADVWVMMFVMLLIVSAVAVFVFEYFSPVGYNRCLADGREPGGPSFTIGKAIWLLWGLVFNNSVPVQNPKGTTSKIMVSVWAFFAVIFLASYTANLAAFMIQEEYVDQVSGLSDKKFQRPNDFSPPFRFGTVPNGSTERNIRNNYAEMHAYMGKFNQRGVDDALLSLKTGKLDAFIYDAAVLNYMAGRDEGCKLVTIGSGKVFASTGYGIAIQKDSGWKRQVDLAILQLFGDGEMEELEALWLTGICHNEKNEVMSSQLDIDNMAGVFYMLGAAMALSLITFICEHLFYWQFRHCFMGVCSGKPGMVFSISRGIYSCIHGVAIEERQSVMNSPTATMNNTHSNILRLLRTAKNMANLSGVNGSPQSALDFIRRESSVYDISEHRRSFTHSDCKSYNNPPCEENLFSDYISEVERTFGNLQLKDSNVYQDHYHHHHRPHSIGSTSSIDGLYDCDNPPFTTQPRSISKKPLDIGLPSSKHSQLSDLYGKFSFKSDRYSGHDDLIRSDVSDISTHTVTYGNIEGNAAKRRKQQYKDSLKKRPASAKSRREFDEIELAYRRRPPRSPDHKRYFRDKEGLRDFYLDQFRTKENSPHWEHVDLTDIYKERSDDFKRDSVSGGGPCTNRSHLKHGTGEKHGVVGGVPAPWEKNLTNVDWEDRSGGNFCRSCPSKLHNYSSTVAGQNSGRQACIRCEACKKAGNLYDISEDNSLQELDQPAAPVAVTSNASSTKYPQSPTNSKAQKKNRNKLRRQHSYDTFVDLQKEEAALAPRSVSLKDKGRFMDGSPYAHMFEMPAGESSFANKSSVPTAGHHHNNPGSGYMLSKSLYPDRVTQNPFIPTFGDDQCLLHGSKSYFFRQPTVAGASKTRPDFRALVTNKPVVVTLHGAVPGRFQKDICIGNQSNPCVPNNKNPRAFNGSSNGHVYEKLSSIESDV

O=C(COc1ccc2[nH]c(=O)oc2c1)N1CCN(c2ccc(Cl)c(Cl)c2)CC1 [drawing 797]
Cmax at 15 min ([1]; ip, 10 mg/kg, 10 MPK i.p., 15 m): 960 ng/mL

NC(=O)Nc1ccc(OC[C@@H](O)CN2CCN(c3ccc(Cl)cc3)C2=O)cc1 [drawing 794]
Cmax ([1]; iv, 1 mg/kg, 1 MPK i.v.): 715 ng/mL
AUC(0-t) [1, 4]: 787 ng·h/mL

Oc1ccc(OC[C@@H](O)CN2CCN(c3ccc(Cl)cc3)CC2)cc1 [drawing 815]
Cmax [2]: 10.2 ng/mL
Tmax [2]: 5.3 h
bioavailability ([2]; read-out: % Absorbed (% F)): 3.3%
AUC(0-t) ([2]; read-out: AUC (0-last h) p.o.): 56.4 ng·h/mL

O=c1[nH]c2ccc(OC[C@@H](O)CSc3nc4cc(Cl)c(Cl)cc4[nH]3)cc2o1 [drawing 798]
Cmax at 30 min ([1]; iv, 3 mg/kg, 3 MPK i.v.): 398 ng/mL

O=c1[nH]c2ccc(OC[C@@H](O)CN3CCN(c4ccc(F)c(F)c4)CC3)cc2[nH]1 [drawing 787]
Cmax ([1]; iv, 1 mg/kg, 1 MPK i.v.): 241 ng/mL
AUC(0-t) [1, 4]: 452 ng·h/mL

O=C1N(C[C@H](O)COc2ccc(O)cc2)CCN1c1ccc(Cl)cc1 [drawing 795]
Cmax at 30 min ([1]; iv, 3 mg/kg, 3 MPK i.v.): 377 ng/mL

CS(=O)(=O)Nc1ccc(OC[C@@H](O)CN2CCN(c3ccc(Cl)c(Cl)c3)CC2)cc1
Cmax ([1]; iv, 3 mg/kg, 3MPK i.v.): 1070 ng/mL
AUC(0-t) ([1]; iv, 3 mg/kg, 3MPK, 0-4 hr i.v.): 2350 ng·h/mL

CS(=O)(=O)Nc1ccc(OC[C@@H](O)CN2CCN(c3ccc(F)c(F)c3)CC2)cc1 [drawing 789]
Cmax at 30 min ([1]; ip, 60 mg/kg, 60 MPK): 13400 ng/mL
Cmax at 2 hr ([1]; ip, 60 mg/kg, 60 MPK, 2 hr): 13100 ng/mL

NC(=O)Nc1ccc(OC[C@@H](O)CN2CCN(c3ccc(Cl)cc3)CC2)cc1 [drawing 786]
Cmax ([1]; iv, 1 mg/kg, 1 MPK i.v.): 252 ng/mL
AUC(0-t) [1, 5]: 1030 ng·h/mL

Oc1ccc(OC[C@@H](O)CSc2nc3cc(Cl)c(Cl)cc3[nH]2)cc1 [drawing 799]
Cmax at 30 min ([1]; iv, 3 mg/kg, 3 MPK i.v.): 413 ng/mL

Oc1ccc(OC[C@@H](O)CN2CCN(c3ccc(Cl)cc3)CC2)cc1 [drawing 791]
Cmax ([1]; iv, 1 mg/kg, 1 MPK i.v.): 193 ng/mL
AUC(0-t) [1, 5]: 187 ng·h/mL

O=c1[nH]c2ccc(OC[C@@H](O)CN3CCN(c4ccc(Cl)cc4)CC3)cc2o1 [drawing 792]
Cmax ([1]; iv, 1 mg/kg, 1 MPK i.v.): 288 ng/mL
AUC(0-t) [1, 5]: 217 ng·h/mL

O=c1[nH]c2ccc(OCC(O)CN3CCN(c4ccc(Cl)cc4)CC3)cc2o1 (stereo not drawn)
IC50 [3, 6]: 79 nM
IC50 [3, 7]: 726 nM

CS(=O)(=O)Nc1ccc(OCC(O)CNCCNc2ccccc2)cc1 (stereo not drawn)
IC50 [3, 8]: 55 nM
IC50 [3, 9]: 133 nM

N#Cc1ccccc1N1CCN(C[C@@H](O)COc2ccc(O)cc2)CC1
IC50 [3, 10]: 3210 nM
IC50 [3, 11]: 8330 nM

O=c1[nH]c2ccc(OCC(O)CNCCc3ccc(Cl)c(Cl)c3)cc2o1 (stereo not drawn)
IC50 [3, 6]: 185 nM
IC50 [3, 7]: 446 nM

CS(=O)(=O)Nc1ccc(OCC(O)CN2CCN(c3ccc(Cl)c(Cl)c3)CC2)cc1 (stereo not drawn)
IC50 [3, 8]: 296 nM
IC50 [3, 9]: 1020 nM

Oc1ccc(OCC(O)CN2CCN(c3cccc(C(F)(F)F)c3)CC2)cc1 (stereo not drawn)
IC50 [3, 10]: 386 nM
IC50 [3, 11]: 3790 nM

Cc1ccc(N2CCN(C[C@H](O)COc3ccc4c(c3)CCC(=O)N4)CC2)cc1 [drawing 790]
Cmax ([1]; iv, 1 mg/kg, 1 MPK i.v.): 464 ng/mL
AUC(0-t) [1, 4]: 347 ng·h/mL

Oc1ccc(OC[C@H](O)CN2CCN(c3ccc(F)cc3)CC2)cc1
IC50 [3, 10]: 87 nM
IC50 [3, 11]: 529 nM

O=c1[nH]c2ccc(OC[C@H](O)CN3CCN(c4ccc(Cl)c(Cl)c4)CC3)cc2o1
IC50 [3, 6]: 185 nM
IC50 [3, 7]: 1500 nM

Oc1ccc(OC[C@H](O)CN2CCN(c3cccc(F)c3)CC2)cc1
IC50 [3, 10]: 211 nM
IC50 [3, 11]: 598 nM

O=C(CCc1ccc(O)cc1)NCCNc1ccc(Cl)c(Cl)c1
IC50 [3, 12]: 210 nM
IC50 [3, 13]: 339 nM

Oc1ccc(OCC(O)CNCCc2ccc(Cl)c(Cl)c2)cc1F (stereo not drawn)
IC50 [3, 10]: 114 nM
IC50 [3, 11]: 549 nM

Cc1ccc(N2CCN(C[C@H](O)COc3ccc4[nH]c(=O)oc4c3)CC2)cc1 [drawing 793]
Cmax ([1]; iv, 1 mg/kg, 1 MPK i.v.): 568 ng/mL
AUC(0-t) [1, 5]: 364 ng·h/mL

Oc1ccc(OCC(O)CN2CCN(c3ccc(O)cc3)CC2)cc1 (stereo not drawn)
IC50 [3, 10]: 576 nM
IC50 [3, 11]: 4700 nM

O=C(COc1ccc2[nH]c(=O)oc2c1)NCCNc1ccc(Cl)c(Cl)c1
IC50 [3, 12]: 80 nM
IC50 [3, 13]: 150 nM

Oc1ccc(OCC(O)CN2CCN(c3ccc(Br)cc3)CC2)cc1 (stereo not drawn)
IC50 [3, 10]: 73 nM
IC50 [3, 11]: 204 nM

Oc1ccc(OCC(O)CN2CCN(c3ccc(C(F)(F)F)cc3)CC2)cc1 (stereo not drawn)
IC50 [3, 10]: 113 nM
IC50 [3, 11]: 448 nM

Oc1ccc(OCC(O)CNCCc2ccc(Cl)c(Cl)c2)c(F)c1 (stereo not drawn)
IC50 [3, 10]: 116 nM
IC50 [3, 11]: 330 nM

Cc1ccccc1N1CCN(C[C@@H](O)COc2ccc(O)cc2)CC1
IC50 [3, 10]: 430 nM
IC50 [3, 11]: 3930 nM

CS(=O)(=O)Nc1ccc(CCC(=O)NCCNc2ccc(Cl)c(Cl)c2)cc1
IC50 [3, 12]: 30 nM
IC50 [3, 13]: 55 nM

Oc1ccc(OC[C@H](O)CN2CCN(c3ccc(F)c(F)c3)CC2)cc1
IC50 [3, 10]: 50 nM
IC50 [3, 11]: 272 nM

NC(=O)Nc1ccc(OC[C@@H](O)CN2CCN(c3ccc(Cl)cc3)CC2)cc1 [drawing 755]
IC50 [3, 14]: 46 nM
IC50 [3, 15]: 452 nM

NC(=O)Nc1ccc(OC[C@H](O)CN2CCN(c3ccc(Cl)cc3)CC2)cc1
IC50 [3, 14]: 19 nM
IC50 [3, 15]: 60 nM

Oc1ccc(OCC(O)CN2CCN(c3ccc(-c4ccccc4)cc3)CC2)cc1 (stereo not drawn)
IC50 [3, 10]: 6950 nM
IC50 [3, 11]: 191000 nM

O=C(COc1ccc2[nH]c(=O)[nH]c2c1)N1CCN(c2ccc(Cl)c(Cl)c2)CC1 [drawing 796]
Cmax ([1]; iv, 1 mg/kg, 1 MPK i.v.): 576 ng/mL
AUC(0-t) [1, 4]: 1100 ng·h/mL
